Experiment [1] is described as follows: Cytotoxicity against human MCF7/6 cells after 72 hrs by SRB assay. It counts as functional, cell-based. To be noted: MCF7/6, 72 h. (In general: The SRB assay estimates cell density from bound dye.)
For experiment [2], the target named is T1, Estrogen receptor (Homo sapiens, UniProt P03372).
T1 sequence (P03372 whole entry): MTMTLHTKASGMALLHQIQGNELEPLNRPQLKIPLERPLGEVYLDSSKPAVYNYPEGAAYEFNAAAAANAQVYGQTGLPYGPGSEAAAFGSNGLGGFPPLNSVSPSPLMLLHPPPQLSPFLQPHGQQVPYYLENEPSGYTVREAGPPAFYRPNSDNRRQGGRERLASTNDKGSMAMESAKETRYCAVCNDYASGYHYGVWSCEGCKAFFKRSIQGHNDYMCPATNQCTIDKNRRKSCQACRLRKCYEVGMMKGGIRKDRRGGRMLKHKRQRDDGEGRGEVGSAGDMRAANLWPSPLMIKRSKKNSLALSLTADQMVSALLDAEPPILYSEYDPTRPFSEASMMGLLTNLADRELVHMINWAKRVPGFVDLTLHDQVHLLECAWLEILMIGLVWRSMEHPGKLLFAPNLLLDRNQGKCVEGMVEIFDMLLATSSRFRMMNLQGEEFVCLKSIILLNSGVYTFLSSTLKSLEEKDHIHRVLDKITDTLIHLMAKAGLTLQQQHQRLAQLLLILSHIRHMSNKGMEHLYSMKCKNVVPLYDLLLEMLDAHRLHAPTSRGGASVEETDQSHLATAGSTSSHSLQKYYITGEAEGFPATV
Description: Estrogenic activity at human estrogen receptor expressing Saccharomyces cerevisiae carrying estrogen responsive sequence containing plasmid assessed as metabolism of chlorophenol res beta-D-galactopyranoside.

A short description of experiment [3]: Cytotoxicity against human MCF7/6 cells at 80 uM after 72 hrs by SRB assay. The class given is functional. To be noted: MCF7/6, 72 h.
Experiment [4] can be described thus: Cytotoxicity against human MCF7/6 cells at 40 uM after 72 hrs by SRB assay. The class given is functional. To be noted: MCF7/6, 72 h.
The target of experiment [5] is T1, Estrogen receptor. The experiment in a line: Estrogenic activity at estrogen receptor in human Ishikawa Var-1 cells assessed as stimulation of alkaline phosphatase activity measured by metabolism of p-nitrophenol phosphatase after 72 hrs. The class given is cell-based.

As usually defined, the IC50 is the point on the concentration scale where inhibition reaches its midpoint. A higher IC50 goes with lower potency. By EC50 is commonly meant the midpoint of the concentration-response curve. One may read the inhibition as the drop in the measured response relative to a control, in per cent. A high value points to a strong effect. Take `C=C(C)C(CC=C(C)C)Cc1c(O)cc(OC)c2c1O[C@H](c1ccc(O)cc1O)CC2=O` (stereo not given in full) [KURARINONE]: the IC50 in experiment [1] is 22.2 µM. The EC50 in experiment [2] stood at 4.6 µM; in experiment [5], 1.66 µM. Besides, in experiment [3], the inhibition at 80 µM was above 80%. In experiment [4], the inhibition at 40 µM is 60%.

Source of the values: ChEMBL document CHEMBL1148943, “Estrogenic and anticarcinogenic properties of kurarinone, a lavandulyl flavanone from the roots of Sophora flavescens” (J Nat Prod, 2004).
